# Tested on: apheresis patients (allergic reaction to dextran sulfate)
# Text: The protocol begins with the oral administration of an antacid and a histamine blocker. […] The histamine blocker can be selected from a number of commercial alternatives. These include, specifically, H-1 blockers, such as loratadine, fexofenadine and azelastine.
# Centrally important and essential is the administration of magnesium, preferably magnesium IV, available as magnesium sulfate. Administration of magnesium sulfate, shortly in advance of apheresis, serves to relax the vascular system, and shift the patient or a sympathetic response to a parasympathetic vascular relaxation response. Magnesium realizes and calms the sympathetic FFF response, the survival instinct that is so prevalent in angioedema. […] While it can be infused over a longer period of more than one hour, a preferred protocol infuses it very rapidly. […] A drip in 100 ml-250 ml normal physiologic saline solution (Ns) or lactated Ringers solution (LR) has been employed. Other carriers, such as dextrose in water (5%) (D5W) or sterile water at smaller volumes, or similar physiologically compatible carriers may be used. A faster drip of not more than 30 minutes is preferable, and may be essential to intervene in and reduce ongoing severe reactions.
# When the apheresis is done, dextran sulfate exposure can still cause a reaction. […] Apheresis patients also get oxygen via canula, 2-4 liters a minute through the procedure. […]
smiles,measurement,setting,value
O=S(=O)([O-])[O-].[Mg+2] [magnesium sulfate],allergic reactions observed during dextran sulfate apheresis,"full protocol: ACE inhibitors stopped at least a week before, antacid and H-1 histamine blocker, magnesium sulfate IV no more than an hour before apheresis, at least 60 apheresis treatments, at least thirty patients",no issues and little or no allergic reactions were observed
same,tolerance of Liposorber apheresis treatment,"seven patients with previous anaphylactoid shock reaction to Liposorber even with IV steroids, magnesium sulfate without any supportive or additional treatments",allowed all 7 patients to tolerate the treatment

# From patent publication US20200360426A1, “PROTOCOL AND COMPOSITION FOR SUPPRESSION OF ALLERGIC RESPONSES” (priority 2019, published 2020)
